The source of these data is patent publication US10702526B2, “Inhibitors of immune checkpoint modulators and related methods” (eFFECTOR Therapeutics, Inc., priority 2015, dated 2020).

“Also recorded” adds a separate entry of the source.

The test system of test [1] is IL-2 production in Jurkat T cells. As to the kind of experiment: IL-2 ELISA on supernatants of activated Jurkat T cells. The format is cell-based, human. Particulars: Jurkat T cells with PHA and PMA, 48 hours. The method, then:
To examine the effect of MNK-specific inhibitors on PD-1 expression, Jurkat cells (Clone E6.1, ATCC, transformed T cells) were used, which express PD-1 when activated through T cell receptor (TCR) signaling. Briefly, Jurkat cells were grown in 1×RPMI with 1× Pen/Strep, and 10% FBS, then about 3×10^6 Jurkat cells were activated in presence of 1 μg/mL PHA (Sigma) and 50 ng/mL PMA (Sigma). Test Cells were treated simultaneously with various concentrations of MNK-specific inhibitor Compound 107 (0, 0.01, 0.1, 1, 3 and 10 μM). After 48 hours, culture supernatants were harvested and examined via sandwich ELISA for the presence of IL-2 using human IL-2 ELISA DuoSet® (R&D Systems, Minneapolis, Minn.). […] After fixation, cells were washed twice with flow buffer and re-suspended in flow buffer and assessed for fluorescence using BD Accuri C6 flow cytometer. Data were analyzed using the C6 cytometer software (BD Biosciences, San Jose, Calif.).
A general note: ELISA stands for enzyme-linked immunosorbent assay.

Test [2] concerns PD-1 expression on human Pan-T cells. As to the kind of experiment: PD-1 expression on primary T cells activated with anti-CD3/anti-CD28 beads (flow cytometry). The format is cell-based. The procedure: (§1) About 3×10^5 T cells were activated using anti-CD3/anti-CD28 magnetic beads as per manufacturer's protocol (Dynabeads®, Invitrogen, Carlsbad, Calif.). Briefly, a ratio of fresh primary T cells to beads used to activate the T cells was 1:1 (for every 80,000 T cells, 2 μl of beads were added). Test cells were treated simultaneously with various concentrations of MNK-specific inhibitor Compound 107 (0.01, 0.1, 1, 3 and 10 μM). After 48 hours, culture supernatants were harvested and examined via sandwich ELISA for the presence of IL-2 using human IL-2 ELISA DuoSet® (R&D Systems, Minneapolis, Minn.). […] After fixation, cells were washed twice with flow buffer and re-suspended in flow buffer and assessed for fluorescence using BD Accuri C6 cytometer. Data were analyzed using the C6 cytometer software (BD Biosciences, San Jose, Calif.).
A general note: In flow cytometry, cells or beads pass a laser one at a time.

Test [3] relates to IL-2 production in primary T cells. The test can be described thus: IL-2 ELISA on supernatants of activated primary T cells. Type of test: cell-based, human. Particulars: T cells activated with anti-CD3/anti-CD28 beads. The procedure: as §1
The test system of test [4] is IL-10 production in primary T cells. The test can be described thus: IL-10 production by activated primary T cells. The format is cell-based, human.
Test [5] concerns T effector (CD3+/CD8+) and T regulatory (CD4+/FOXP3+) cells. The test can be described thus: TE:Treg ratio in tumor infiltrating lymphocytes of CT26 allograft tumors (flow cytometry). The format is in vivo, mouse. Particulars: TILs after 4 days of treatment. The method, then: Mice having established CT26 tumors (100-200 mm^3) were treated with compound 107, anti-PD1 antibody or a combination of compound 107 and anti-PD-1 antibody, as described in Example 4. After 4 days of treatment, the mice were euthanized and tumors were excised. A single cell suspension was generated by dissecting excised tumors into fine pieces with a razor blade, incubating with collagenase, hyaluronidase and DNAse I (Worthington Biochemical, Lakewood N.J.) in RPMI, incubating in 1× trypsin-EDTA, and finally passaging through a 70 micron cell strainer filter (BD Biosciences, San Jose Calif.). […] For samples assessed for CD45/CD3/CD8, cells were washed twice with flow buffer and incubated with fixation buffer for 10 minutes at 4° C. […] Samples assessed for CD45/CD4 were further processed for intracellular staining of FOXP3 using an anti-FOXP3 antibody (FOXP3-PE, BD Biosciences) and the FOXP3/Transcription Factor staining buffer set (eBiosciences, San Diego Calif.) following the manufacturer's protocol. […] Data were collected and analyzed using a BD Accuri C6 flow cytometer (BD Biosciences, San Jose Calif.). The ratio of TE to Treg cells was calculated by determining the percentage of CD3^+/CD8^+ cells present in the CD45^+ lymphocyte population and dividing by the percentage of CD4^+/FOXP3^+ present from the same population.

A word on the inhibition: it is the change of the read-out against control, counted positive when it falls.

Regarding `Cc1cc(Nc2cc(N)ncn2)c(=O)n2c1C(=O)NC21CCCCC1.Cl` [Compound 107], the IL-2 production result in test [1] is on record as “did not alter cytokine production; also recorded: did not detectably alter IL-2 production”. Further, the “maximum inhibition of PD-1 expression” value in test [2] (T cells activated with anti-CD3/anti-CD28 beads, 10 μM, 48 hours) is given as 76%. The PD-1 expression result in test [2] (primary T cells, anti-CD3/anti-CD28 beads, 0.01-10 μM) is on record as “reduced in a dose dependent manner”. The IL-2 production entry in test [3] is “did not detectably alter IL-2 production”. Moreover, in test [4], the “% IL-10 Inhibition” value was “++++ (++++ = 75-100%)” and the “expression/production of IL-10” value was “inhibited”. Besides, the inhibition at 10 µM in test [4] (Homo sapiens, T-cell, 10 μM, read-out: maximum inhibition of the production of IL-10) is 96%. Moreover, the “average TE:Treg ratio” value in test [5] is listed as 9.7.
